Experimental data published in ChEMBL document CHEMBL5291721, “A preclinical secondary pharmacology resource illuminates target-adverse drug reaction associations of marketed drugs” (Nat Commun, 2023).

What was measured:
Melanocortin receptor 3 = Melanocortin receptor 3 (Homo sapiens, UniProt P41968)
Melanocortin receptor 4 = Melanocortin receptor 4 (Homo sapiens, UniProt P32245)
[1] = target: T1, Equilibrative nucleoside transporter 1 (Homo sapiens, UniProt Q99808)
T1 sequence (Q99808 whole entry): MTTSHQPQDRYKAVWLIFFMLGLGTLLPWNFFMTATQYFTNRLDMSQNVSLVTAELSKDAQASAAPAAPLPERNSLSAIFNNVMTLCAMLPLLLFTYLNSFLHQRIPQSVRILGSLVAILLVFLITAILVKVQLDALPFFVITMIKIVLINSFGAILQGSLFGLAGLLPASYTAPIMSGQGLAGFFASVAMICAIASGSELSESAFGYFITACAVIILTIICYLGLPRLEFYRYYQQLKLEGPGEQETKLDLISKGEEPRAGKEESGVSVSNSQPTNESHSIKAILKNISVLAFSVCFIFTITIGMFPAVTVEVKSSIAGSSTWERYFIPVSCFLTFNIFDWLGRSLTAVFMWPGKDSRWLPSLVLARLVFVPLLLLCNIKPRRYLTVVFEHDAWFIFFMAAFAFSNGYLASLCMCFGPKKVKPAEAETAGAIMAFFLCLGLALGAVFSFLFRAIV

[2] = target: 5-hydroxytryptamine receptor 2B (Homo sapiens, UniProt P41595); format: functional, cell-based
Chain of 5-hydroxytryptamine receptor 2B (P41595 whole entry): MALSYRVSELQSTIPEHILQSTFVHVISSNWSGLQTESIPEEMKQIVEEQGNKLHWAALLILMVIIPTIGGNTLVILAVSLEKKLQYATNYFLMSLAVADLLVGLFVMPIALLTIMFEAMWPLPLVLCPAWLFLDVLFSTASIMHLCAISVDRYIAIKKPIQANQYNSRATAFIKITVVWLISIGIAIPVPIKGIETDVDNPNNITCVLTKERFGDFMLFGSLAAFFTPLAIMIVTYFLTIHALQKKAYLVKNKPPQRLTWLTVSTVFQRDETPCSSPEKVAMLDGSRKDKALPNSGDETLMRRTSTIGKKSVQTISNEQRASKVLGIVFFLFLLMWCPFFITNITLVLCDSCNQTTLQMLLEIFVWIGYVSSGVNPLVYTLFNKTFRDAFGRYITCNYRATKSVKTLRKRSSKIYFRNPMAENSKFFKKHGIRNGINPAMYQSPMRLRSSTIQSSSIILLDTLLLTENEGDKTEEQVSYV

[3] = target: Delta-type opioid receptor (Homo sapiens, UniProt P41143)
Chain of Delta-type opioid receptor (P41143 whole entry): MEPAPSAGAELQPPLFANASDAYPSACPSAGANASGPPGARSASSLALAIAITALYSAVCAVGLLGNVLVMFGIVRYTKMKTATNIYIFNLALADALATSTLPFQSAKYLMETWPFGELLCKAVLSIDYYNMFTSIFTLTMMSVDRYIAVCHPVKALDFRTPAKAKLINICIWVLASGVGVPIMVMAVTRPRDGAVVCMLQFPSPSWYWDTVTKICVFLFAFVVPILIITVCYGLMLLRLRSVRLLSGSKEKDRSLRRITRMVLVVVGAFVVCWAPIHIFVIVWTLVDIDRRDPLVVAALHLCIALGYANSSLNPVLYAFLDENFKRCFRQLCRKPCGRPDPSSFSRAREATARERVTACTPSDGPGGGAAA

Adenosine receptor A2a = Adenosine receptor A2a (Homo sapiens, UniProt P29274)
Chain of Adenosine receptor A2a (P29274 whole entry): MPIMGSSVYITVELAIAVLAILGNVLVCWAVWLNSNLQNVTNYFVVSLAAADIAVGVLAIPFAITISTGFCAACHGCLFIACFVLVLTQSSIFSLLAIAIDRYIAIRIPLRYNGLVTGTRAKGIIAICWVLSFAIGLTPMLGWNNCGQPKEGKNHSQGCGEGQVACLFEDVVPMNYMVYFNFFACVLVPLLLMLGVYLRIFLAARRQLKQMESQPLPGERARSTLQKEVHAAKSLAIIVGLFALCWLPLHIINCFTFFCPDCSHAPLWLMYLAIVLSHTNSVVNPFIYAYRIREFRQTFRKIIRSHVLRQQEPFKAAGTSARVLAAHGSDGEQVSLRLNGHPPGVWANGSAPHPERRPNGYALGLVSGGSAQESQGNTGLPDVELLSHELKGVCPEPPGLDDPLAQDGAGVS

Adenosine receptor A1 = target: T2, Adenosine receptor A1 (Homo sapiens, UniProt P30542)
T2 sequence (P30542 whole entry): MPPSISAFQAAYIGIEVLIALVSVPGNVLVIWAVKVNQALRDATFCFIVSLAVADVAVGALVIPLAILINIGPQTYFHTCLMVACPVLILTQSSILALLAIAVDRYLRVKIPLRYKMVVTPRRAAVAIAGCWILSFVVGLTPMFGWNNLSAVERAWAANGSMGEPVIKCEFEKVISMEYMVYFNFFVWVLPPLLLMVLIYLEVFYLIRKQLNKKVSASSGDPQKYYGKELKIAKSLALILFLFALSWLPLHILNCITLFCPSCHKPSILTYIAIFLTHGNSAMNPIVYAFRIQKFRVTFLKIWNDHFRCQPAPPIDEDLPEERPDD

[4] = target: Beta-1 adrenergic receptor (Homo sapiens, UniProt P08588); format: functional
Chain of Beta-1 adrenergic receptor (P08588 whole entry): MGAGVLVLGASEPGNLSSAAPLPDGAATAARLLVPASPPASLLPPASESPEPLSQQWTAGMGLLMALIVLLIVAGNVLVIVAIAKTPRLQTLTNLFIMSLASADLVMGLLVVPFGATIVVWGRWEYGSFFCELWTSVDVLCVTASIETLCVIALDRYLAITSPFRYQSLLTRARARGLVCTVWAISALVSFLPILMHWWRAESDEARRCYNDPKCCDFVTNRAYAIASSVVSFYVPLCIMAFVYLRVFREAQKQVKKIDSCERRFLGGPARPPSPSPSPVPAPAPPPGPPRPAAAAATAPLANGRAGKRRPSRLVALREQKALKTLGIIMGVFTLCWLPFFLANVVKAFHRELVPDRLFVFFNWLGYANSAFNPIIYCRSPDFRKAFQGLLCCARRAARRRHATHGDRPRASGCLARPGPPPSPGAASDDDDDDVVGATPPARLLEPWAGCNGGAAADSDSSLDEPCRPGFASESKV

[5] = target: T3, Cholecystokinin receptor type A (Homo sapiens, UniProt P32238)
T3 sequence (P32238 whole entry): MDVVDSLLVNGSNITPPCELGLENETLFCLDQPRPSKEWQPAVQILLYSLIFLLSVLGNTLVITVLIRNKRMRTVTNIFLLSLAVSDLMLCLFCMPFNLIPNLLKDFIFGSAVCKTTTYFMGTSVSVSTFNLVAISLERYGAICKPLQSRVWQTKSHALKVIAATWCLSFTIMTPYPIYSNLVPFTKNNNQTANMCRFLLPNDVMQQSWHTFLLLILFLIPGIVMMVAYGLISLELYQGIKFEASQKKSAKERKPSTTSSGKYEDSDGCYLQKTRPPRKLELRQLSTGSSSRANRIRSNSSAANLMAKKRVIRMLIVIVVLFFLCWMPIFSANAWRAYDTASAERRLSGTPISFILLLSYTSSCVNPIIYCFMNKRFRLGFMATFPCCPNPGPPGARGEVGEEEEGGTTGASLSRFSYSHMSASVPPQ

Bile salt export pump = Bile salt export pump (Homo sapiens, UniProt O95342); format: functional
Chain of Bile salt export pump (O95342 whole entry): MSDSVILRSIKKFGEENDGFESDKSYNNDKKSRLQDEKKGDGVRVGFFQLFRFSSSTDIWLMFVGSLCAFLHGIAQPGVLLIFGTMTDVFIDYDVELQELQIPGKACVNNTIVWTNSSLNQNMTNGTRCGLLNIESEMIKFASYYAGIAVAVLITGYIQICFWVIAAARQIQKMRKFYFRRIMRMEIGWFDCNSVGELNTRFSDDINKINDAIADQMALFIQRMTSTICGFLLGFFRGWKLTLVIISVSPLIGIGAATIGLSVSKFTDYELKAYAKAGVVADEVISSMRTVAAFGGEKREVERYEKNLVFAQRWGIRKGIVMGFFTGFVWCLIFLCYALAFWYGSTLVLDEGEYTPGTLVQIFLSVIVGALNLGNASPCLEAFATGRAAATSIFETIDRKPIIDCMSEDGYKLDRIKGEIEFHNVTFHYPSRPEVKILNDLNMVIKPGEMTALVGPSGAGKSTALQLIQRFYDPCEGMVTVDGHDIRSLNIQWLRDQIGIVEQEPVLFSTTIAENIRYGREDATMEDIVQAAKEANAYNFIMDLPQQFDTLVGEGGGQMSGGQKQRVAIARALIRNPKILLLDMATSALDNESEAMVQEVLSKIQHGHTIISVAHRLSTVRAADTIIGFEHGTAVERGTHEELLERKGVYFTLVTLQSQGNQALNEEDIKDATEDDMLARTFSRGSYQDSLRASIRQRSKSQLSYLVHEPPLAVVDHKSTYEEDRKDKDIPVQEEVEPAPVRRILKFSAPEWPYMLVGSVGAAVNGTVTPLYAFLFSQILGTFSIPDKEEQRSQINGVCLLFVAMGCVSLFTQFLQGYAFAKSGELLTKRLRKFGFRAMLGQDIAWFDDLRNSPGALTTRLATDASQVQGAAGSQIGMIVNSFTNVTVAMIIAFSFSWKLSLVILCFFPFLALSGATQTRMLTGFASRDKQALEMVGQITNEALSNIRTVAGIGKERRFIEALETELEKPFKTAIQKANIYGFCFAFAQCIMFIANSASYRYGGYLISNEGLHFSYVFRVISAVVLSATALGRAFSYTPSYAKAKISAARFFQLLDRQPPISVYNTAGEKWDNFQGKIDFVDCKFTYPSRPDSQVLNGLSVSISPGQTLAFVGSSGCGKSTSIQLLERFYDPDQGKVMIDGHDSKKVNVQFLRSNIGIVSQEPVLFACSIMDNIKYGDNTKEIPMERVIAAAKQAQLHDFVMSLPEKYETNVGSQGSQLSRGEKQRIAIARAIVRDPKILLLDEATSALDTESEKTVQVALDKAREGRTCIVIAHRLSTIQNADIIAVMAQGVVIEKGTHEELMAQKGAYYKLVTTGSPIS

[6] = target: T4, Type-1 angiotensin II receptor (Homo sapiens, UniProt P30556)
T4 sequence (P30556 whole entry): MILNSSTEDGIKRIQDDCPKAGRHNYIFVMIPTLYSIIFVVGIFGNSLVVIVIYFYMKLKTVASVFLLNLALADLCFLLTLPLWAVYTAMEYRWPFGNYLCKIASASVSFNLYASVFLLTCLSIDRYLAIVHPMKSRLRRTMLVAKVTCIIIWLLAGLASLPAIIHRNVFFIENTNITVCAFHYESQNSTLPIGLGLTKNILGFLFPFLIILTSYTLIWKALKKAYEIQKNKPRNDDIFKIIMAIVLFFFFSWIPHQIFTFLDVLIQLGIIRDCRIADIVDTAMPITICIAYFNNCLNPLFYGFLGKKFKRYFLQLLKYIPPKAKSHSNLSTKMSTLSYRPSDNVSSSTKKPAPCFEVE

Cannabinoid receptor 1 = Cannabinoid receptor 1 (Homo sapiens, UniProt P21554); format: functional, cell-based
Chain of Cannabinoid receptor 1 (P21554 whole entry): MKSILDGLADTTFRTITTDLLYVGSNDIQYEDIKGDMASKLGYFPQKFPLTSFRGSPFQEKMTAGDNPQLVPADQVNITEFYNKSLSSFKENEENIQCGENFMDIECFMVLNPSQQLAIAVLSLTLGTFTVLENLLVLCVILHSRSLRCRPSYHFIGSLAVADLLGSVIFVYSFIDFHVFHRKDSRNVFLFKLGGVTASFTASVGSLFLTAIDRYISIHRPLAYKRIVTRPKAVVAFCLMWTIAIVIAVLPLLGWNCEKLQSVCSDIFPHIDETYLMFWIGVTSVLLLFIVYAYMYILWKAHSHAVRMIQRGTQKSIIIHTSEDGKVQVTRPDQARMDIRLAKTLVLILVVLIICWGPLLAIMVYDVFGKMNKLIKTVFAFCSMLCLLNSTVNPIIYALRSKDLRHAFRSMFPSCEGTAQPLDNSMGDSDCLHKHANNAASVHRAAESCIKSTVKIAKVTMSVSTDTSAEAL

[7] = target: 5-hydroxytryptamine receptor 2A (Homo sapiens, UniProt P28223); format: functional, cell-based
Chain of 5-hydroxytryptamine receptor 2A (P28223 whole entry): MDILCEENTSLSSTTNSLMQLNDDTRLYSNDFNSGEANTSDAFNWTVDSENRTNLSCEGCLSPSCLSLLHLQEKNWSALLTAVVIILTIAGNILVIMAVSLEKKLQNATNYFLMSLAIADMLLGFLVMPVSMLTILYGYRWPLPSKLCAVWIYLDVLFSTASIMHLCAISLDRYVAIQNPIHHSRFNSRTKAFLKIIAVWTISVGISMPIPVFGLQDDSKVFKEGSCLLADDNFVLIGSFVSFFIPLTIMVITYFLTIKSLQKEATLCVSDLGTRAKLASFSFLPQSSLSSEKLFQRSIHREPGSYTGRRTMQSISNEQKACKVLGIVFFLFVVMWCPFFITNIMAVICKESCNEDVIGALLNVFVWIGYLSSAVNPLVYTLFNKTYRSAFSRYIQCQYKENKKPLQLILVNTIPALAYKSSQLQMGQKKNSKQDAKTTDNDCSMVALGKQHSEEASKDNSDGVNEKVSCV

Mu-type opioid receptor = Mu-type opioid receptor (Homo sapiens, UniProt P35372)
[8] = target: Sodium-dependent dopamine transporter (Homo sapiens, UniProt Q01959)
[9] = target: T5, Alpha-1A adrenergic receptor (Homo sapiens, UniProt P35348); format: functional, cell-based
T5 sequence (P35348 whole entry): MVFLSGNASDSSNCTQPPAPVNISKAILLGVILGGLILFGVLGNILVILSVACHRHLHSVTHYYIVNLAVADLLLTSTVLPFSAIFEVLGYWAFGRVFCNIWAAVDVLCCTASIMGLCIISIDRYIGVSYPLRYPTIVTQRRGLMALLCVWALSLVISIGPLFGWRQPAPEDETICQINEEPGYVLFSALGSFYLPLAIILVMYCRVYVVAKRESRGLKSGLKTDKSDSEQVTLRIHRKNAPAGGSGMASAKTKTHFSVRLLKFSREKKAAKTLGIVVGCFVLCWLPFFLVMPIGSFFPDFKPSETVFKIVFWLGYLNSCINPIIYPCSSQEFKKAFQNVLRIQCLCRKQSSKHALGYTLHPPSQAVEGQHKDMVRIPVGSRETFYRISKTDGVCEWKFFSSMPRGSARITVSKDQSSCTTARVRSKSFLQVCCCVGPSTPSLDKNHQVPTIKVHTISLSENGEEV
Also: assay procedure not described here.

Chain of Melanocortin receptor 3 (P41968 whole entry): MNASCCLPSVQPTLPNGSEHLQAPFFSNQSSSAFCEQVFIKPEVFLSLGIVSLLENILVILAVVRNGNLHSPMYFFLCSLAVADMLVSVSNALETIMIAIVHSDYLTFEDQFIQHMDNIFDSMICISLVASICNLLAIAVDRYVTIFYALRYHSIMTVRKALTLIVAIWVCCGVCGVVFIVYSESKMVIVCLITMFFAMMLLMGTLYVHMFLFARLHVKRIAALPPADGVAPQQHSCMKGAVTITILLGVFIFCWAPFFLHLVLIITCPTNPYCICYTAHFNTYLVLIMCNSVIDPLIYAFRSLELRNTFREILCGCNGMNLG
Chain of Melanocortin receptor 4 (P32245 whole entry): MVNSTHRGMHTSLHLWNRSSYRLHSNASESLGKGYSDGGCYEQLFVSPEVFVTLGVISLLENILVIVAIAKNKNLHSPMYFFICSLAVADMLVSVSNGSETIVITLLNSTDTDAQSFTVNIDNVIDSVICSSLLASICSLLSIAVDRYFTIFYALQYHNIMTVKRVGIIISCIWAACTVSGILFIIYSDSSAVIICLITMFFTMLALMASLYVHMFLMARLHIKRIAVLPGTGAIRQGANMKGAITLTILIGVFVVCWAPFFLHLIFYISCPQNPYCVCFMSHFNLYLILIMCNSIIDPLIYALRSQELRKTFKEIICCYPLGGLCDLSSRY

Structure (SMILES) | AC50 (Melanocortin receptor 3) | AC50 (Melanocortin receptor 4) | AC50 [1] | AC50 [2] | AC50 [3] | AC50 (Adenosine receptor A2a) | AC50 (Adenosine receptor A1) | AC50 [4] | AC50 [5] | AC50 (Bile salt export pump) | AC50 [6] | AC50 (Cannabinoid receptor 1) | AC50 [7] | AC50 (Mu-type opioid receptor) | AC50 [8] | AC50 [9]
CCOC(=O)[C@H](CCc1ccccc1)N[C@@H](C)C(=O)N1CCC[C@H]1C(=O)O | > 30 µM | > 30 µM | > 30 µM | > 10 µM | > 10 µM | > 30 µM | > 30 µM | > 10 µM | > 30 µM | > 300 µM | > 30 µM | > 30 µM |  |  |  | 
CCC[C@@H]1C[C@@H](C(=O)N[C@@H]([C@H]2O[C@H](SC)[C@H](O)[C@@H](O)[C@H]2O)[C@H](C)Cl)N(C)C1 [CLINDAMYCIN] | > 30 µM | > 30 µM | > 30 µM | > 10 µM | > 30 µM | > 30 µM | > 30 µM | > 10 µM | > 30 µM | > 300 µM | > 30 µM | > 30 µM |  |  |  | 
NC[C@H]1O[C@H](O[C@H]2[C@H](O)[C@@H](O[C@H]3O[C@H](CO)[C@@H](O)[C@H](N)[C@H]3O)[C@H](N)C[C@@H]2N)[C@H](O)[C@@H](O)[C@@H]1O [KANAMYCIN] | > 10 µM | > 10 µM | > 10 µM | > 10 µM | > 30 µM | > 10 µM | > 10 µM |  | > 10 µM | > 300 µM | > 10 µM |  |  |  |  | 
NC(N)=Nc1nc(CSCCC(N)=NS(N)(=O)=O)cs1 [FAMOTIDINE] | > 30 µM | > 30 µM | > 30 µM | > 10 µM | > 10 µM | > 30 µM | > 30 µM | > 10 µM | > 30 µM | > 300 µM | > 30 µM | > 30 µM |  |  |  | 
O=C(NC[C@H]1CN(c2ccc(N3CCOCC3=O)cc2)C(=O)O1)c1ccc(Cl)s1 [RIVAROXABAN] | > 30 µM |  |  | > 30 µM | > 30 µM |  |  |  |  | 100 µM |  |  | > 30 µM | > 30 µM | > 30 µM | > 3 µM

More lines, main results first:

AC50 (Melanocortin receptor 3) | AC50 (Melanocortin receptor 4) | AC50 [1] | AC50 [2] | AC50 [3] | AC50 (Adenosine receptor A2a) | AC50 (Adenosine receptor A1) | AC50 [4] | AC50 [5] | AC50 (Bile salt export pump) | AC50 [6] | AC50 (Cannabinoid receptor 1) | Structure (SMILES) | AC50 [7] | AC50 (Mu-type opioid receptor) | AC50 [8] | AC50 [9]
> 10 µM | > 10 µM | > 10 µM | > 10 µM | > 30 µM | 5.5 µM | 20.4 µM | > 10 µM | > 10 µM | 8 µM | > 10 µM | 12 µM | COC(=O)C1=C(C)NC(C)=C(C(=O)OCC(C)C)C1c1ccccc1[N+](=O)[O-] (stereo not drawn) [NISOLDIPINE] |  |  |  | 
> 10 µM | > 10 µM | > 10 µM | > 10 µM | > 30 µM | > 10 µM | > 10 µM | > 10 µM | > 10 µM | 140 µM | > 10 µM |  | C[C@H]1C[C@@H]2[C@H]([C@@H](O)C[C@@]3(C)[C@H]2CC[C@]3(O)C(=O)CO)[C@@]2(C)C=CC(=O)C=C12 [METHYLPREDNISOLONE] |  |  |  | 
> 10 µM | > 10 µM | > 10 µM | > 10 µM | > 30 µM | > 10 µM | > 10 µM | > 10 µM | > 10 µM | > 300 µM | > 10 µM |  | NC[C@H]1CC[C@H](C(=O)O)CC1 [TRANEXAMIC ACID] |  |  |  | 
